Data taken from US20060148858A1, “1, 2-Azole derivatives with hypoglycemic and hypolipidemic activity” (priority 2002, published 2006).

| melting point [°C] | Compound |
| --- | --- |
| 104 to 106 | CCCc1nn(-c2ccc(C(F)(F)F)cn2)cc1CCCOc1ccc(OC)c(CCC(=O)O)c1 [Example 81, 3-[2-methoxy-5-(3-{3-propyl-1-[5-(trifluoromethyl)-2-pyridinyl]-1H-pyrazol-4-yl}propoxy)phenyl]propanoic acid] |
| 118 to 119 | CCCc1nn(-c2ccc(C(F)(F)F)cn2)cc1CCCOc1ccc(CCC(=O)O)cc1 [Example 82, 3-[4-(3-{3-propyl-1-[5-(trifluoromethyl)-2-pyridyl]-1H-pyrazol-4-yl}propoxy)phenyl]propionic acid] |
| 87 to 88 | CCCc1nn(-c2ccc(C(F)(F)F)cn2)cc1CCCOc1ccccc1CCC(=O)O [Example 83, 3-[2-(3-{3-propyl-1-[5-(trifluoromethyl)-2-pyridyl]-1H-pyrazol-4-yl}propoxy)phenyl]propionic acid] |
| 97 to 98 | CCCc1nn(-c2ccc(C(F)(F)F)cn2)cc1CCCOc1cccc(CCC(=O)O)c1 [Example 84, 3-[3-(3-{3-propyl-1-[5-(trifluoromethyl)-2-pyridyl]-1H-pyrazol-4-yl}propoxy)phenyl]propionic acid] |
| 119 to 120 | CCCc1nn(-c2ccc(C(F)(F)F)cn2)cc1CCCOc1nn(C)cc1CC(=O)O [Example 87, [1-methyl-3-(3-{3-propyl-1-[5-(trifluoromethyl)-2-pyridyl]-1H-pyrazol-4-yl}propoxy)-1H-pyrazol-4-yl]acetic acid] |
| 111 to 112 | CCCc1nn(-c2ccc(C(F)(F)F)cn2)cc1CCCOc1ccc(F)c(CC(=O)O)c1 [Example 90, [2-fluoro-5-(3-{3-propyl-1-[5-(trifluoromethyl)-2-pyridyl]-1H-pyrazol-4-yl}propoxy)phenyl]acetic acid] |
| 147 to 148 | CCCc1nn(-c2ccc(C(F)(F)F)cn2)cc1CCCOc1cc(CCC(=O)O)ccc1OC [Example 93, 3-[4-methoxy-3-(3-{3-propyl-1-[5-(trifluoromethyl)-2-pyridyl]-1H-pyrazol-4-yl}propoxy)phenyl]propionic acid] |
| 135 to 136 | CCCc1nn(-c2ccc(C(F)(F)F)cn2)cc1CCCOc1ccc(CC(=O)O)c(OC)c1 [Example 95, [2-methoxy-4-(3-{3-propyl-1-[5-(trifluoromethyl)-2-pyridyl]-1H-pyrazol-4-yl}propoxy)phenyl]acetic acid] |
| 135 to 136 | CCCc1nn(-c2ccc(C(F)(F)F)cn2)cc1CCCOc1ccc(OC)c(CC(=O)O)c1 [Example 97, [2-methoxy-5-(3-{3-propyl-1-[5-(trifluoromethyl)-2-pyridinyl]-1H-pyrazol-4-yl}propoxy)phenyl]acetic acid] |
| 99 to 101 | CCOc1nn(-c2ccccn2)cc1CCCOc1cccc(OC(C)(C)C(=O)O)c1 [Example 101, 2-(3-{3-[3-ethoxy-1-(2-pyridinyl)-1H-pyrazol-4-yl]propoxy}phenoxy)-2-methylpropanoic acid] |
| 156 to 157 | CCOc1nn(-c2ccccn2)cc1CCCOc1cc(CCC(=O)O)n(-c2ccccc2)n1 [Example 103, 3-(3-{3-[3-ethoxy-1-(2-pyridinyl)-1H-pyrazol-4-yl]propoxy}-1-phenyl-1H-pyrazol-5-yl)propanoic acid] |
| 66 to 67 | CCOc1nn(-c2ccccn2)cc1CCCOc1cccc(CC(=O)O)c1 [Example 106, (3-{3-[3-ethoxy-1-(2-pyridinyl)-1H-pyrazol-4-yl]propoxy}phenyl)acetic acid] |
| 110 to 111 | CCOc1cc(OCCCc2cn(-c3ccccn3)nc2OCC)ccc1CCC(=O)O [Example 108, 3-(2-ethoxy-4-{3-[3-ethoxy-1-(2-pyridinyl)-1H-pyrazol-4-yl]propoxy}phenyl)propanoic acid] |
| 92 to 93 | CCOc1nn(-c2ccccn2)cc1CCCOc1ccc(CCC(=O)O)cc1OC [Example 109, 3-(4-{3-[3-ethoxy-1-(2-pyridinyl)-1H-pyrazol-4-yl]propoxy}-3-methoxyphenyl)propanoic acid] |
| 128 to 130 | CCOc1nn(-c2ccc(C(F)(F)F)cn2)cc1CCCOc1ccc(CCC(=O)O)c(OCc2ccccc2)c1 [Example 112, 3-[2-(benzyloxy)-4-(3-{3-ethoxy-1-[5-(trifluoromethyl)-2-pyridinyl]-1H-pyrazol-4-yl}propoxy)phenyl]propanoic acid] |
| 131 to 132 | CCOc1cc(OCCCc2cn(-c3ccc(C(F)(F)F)cc3)nc2OCC)ccc1CCC(=O)O [Example 114, 3-[2-ethoxy-4-(3-{3-ethoxy-1-[4-(trifluoromethyl)phenyl]-1H-pyrazol-4-yl}propoxy)phenyl]propanoic acid] |
| 125 to 126 | CCOc1nn(-c2ccc(C(F)(F)F)cc2)cc1CCCOc1ccc(CCC(=O)O)cc1OC [Example 115, 3-[4-(3-{3-ethoxy-1-[4-(trifluoromethyl)phenyl]-1H-pyrazol-4-yl}propoxy)-3-methoxyphenyl]propanoic acid] |
| 151 to 152 | CCOc1nn(-c2ccc(C(F)(F)F)cn2)cc1CCCOc1cc(CC(=O)O)n(C)n1 [Example 119, [3-(3-{3-ethoxy-1-[5-(trifluoromethyl)-2-pyridinyl]-1H-pyrazol-4-yl}propoxy)-1-methyl-1H-pyrazol-5-yl]acetic acid] |
| 153 to 154 | CCCc1nn(-c2ccc(C(F)(F)F)cn2)cc1COc1ccc(CCC(=O)O)c(OC)c1 [Example 120, 3-[2-methoxy-4-({3-propyl-1-[5-(trifluoromethyl)-2-pyridyl]-1H-pyrazol-4-yl}methoxy)phenyl]propionic acid] |
| 129 to 130 | CCCc1nn(-c2ccc(C(F)(F)F)cn2)cc1COc1ccc(CCC(=O)O)c(C)c1 [Example 121, 3-[2-methyl-4-({3-propyl-1-[5-(trifluoromethyl)-2-pyridyl]-1H-pyrazol-4-yl}methoxy)phenyl]propionic acid] |
| 125 to 126 | Cc1nn(-c2ccc(C(F)(F)F)cn2)cc1CCCOc1cc(CCC(=O)O)n(-c2ccccc2)n1 [Example 128, 3-[3-(3-{3-methyl-1-[5-(trifluoromethyl)-2-pyridyl]-1H-pyrazol-4-yl}propoxy)-1-phenyl-1H-pyrazol-5-yl]propionic acid] |
| 107 to 108 | Cc1nn(-c2ccc(C(F)(F)F)cn2)cc1CCCOc1cccc(OC(C)(C)C(=O)O)c1 [Example 130, 2-methyl-2-[3-(3-{3-methyl-1-[5-(trifluoromethyl)-2-pyridyl]-1H-pyrazol-4-yl}propoxy)phenoxy]propionic acid] |

| Compound | melting point [°C] |
| --- | --- |
| CCCc1nn(-c2ccc(C(F)(F)F)cn2)cc1CCCCOc1ccc(CC(=O)O)cc1 [Example 88, [4-(4-{3-propyl-1-[5-(trifluoromethyl)-2-pyridyl]-1H-pyrazol-4-yl}butoxy)phenyl]acetic acid] | 121 to 122 |
| CCCc1nn(-c2ccc(C(F)(F)F)cn2)cc1CCCCOc1ccc(CCC(=O)O)c(OC)c1 [Example 89, 3-[2-methoxy-4-(4-{3-propyl-1-[5-(trifluoromethyl)-2-pyridyl]-1H-pyrazol-4-yl}butoxy)phenyl]propionic acid] | 91 to 92 |
| CCOc1cc(OCCCCc2cn(-c3ccc(C(F)(F)F)cn3)nc2OCC)ccc1CCC(=O)O [Example 107, 3-[2-ethoxy-4-(4-{3-ethoxy-1-[5-(trifluoromethyl)-2-pyridinyl]-1H-pyrazol-4-yl}butoxy)phenyl]propanoic acid] | 101 to 102 |
